Assay results taken from patent publication US7704946B2, “Reversible inhibition of pyramidal gap junction activity” (Caritas St. Elizabeth's Medical Center, priority 2006, dated 2010).

Tested on: pyramidal gap junctions
Assay: Patch clamp recordings of electrically coupled pyramidal pairs in cortical slices, bath-applied soluble Aβ
Type: cell-based, rats and ferrets
Conditions: for washout time to restore gap junctional activity (reversibility): peptide washout

Row | Substance | inhibition of pyramidal gap junction activity, compared between species | washout time to restore gap junctional activity (reversibility) [min] | reduction of postjunctional responses (1 μM bath-applied for 10 minutes, FIG. 2) [%] | effect on presynaptic action potentials (application of Aβ1-40, FIG. 2)
1 | β-Amyloid [25-35] (GSNKGAIIGLM) [Aβ25-35] | same effect as Aβ 1-40 and Aβ 1-42 | 10 | – | –
2 | β-Amyloid [Aβ1-40, β-Amyloid [1-40]] | – | 10 | ~50 | not influenced
